In patent US11040952B2, “Phthalazinone compound, method for preparation thereof, pharmaceutical composition thereof, and use thereof” (SHANGHAI INSTITUTE OF MATERIA MEDICA, CHINESE ACADEMY OF …, priority 2017, dated 2021):

Legend:
[1] = MTT assay for cytotoxicity; type: cell-based, Human; settings: human, HepG2.2.15 cells, half (50%) lethal concentration
Method: (§1) Human hepatoblastoma cell line HepG2.2.15 stably transfected with full-length HBV (provided by Shanghai Institute of Materia Medica, Chinese Academy of Sciences)
(§2) HepG2.2.15 cells were cultured and passaged according to conventional methods. DMEM containing 10% (v/v) bovine serum and the selective antibiotic G418 was used as a medium, the cells were cultured in an incubator at 37° C. under 5% CO2 for 8 days (the medium was exchanged on the 4th day).
(§3) The test compounds were formulated with DMSO into a 40 mM stock solution, which was then prepared into a solution at the defined highest concentration using a DMEM medium containing 10% Hyclone™ Fetal Bovine Serum, followed by diluting the same; the positive drug was lamivudine, which was also prepared into a solution at the defined concentration with the DMEM medium containing 10% Hyclone™ Fetal Bovine Serum.
HepG2.2.15 cells were seeded at 5×10^3 cells/well in a 96-well plate, and cultured for eight days in the presence of the compounds according to the above method, and then 200 μl of the supernatant was taken out, followed by addition of the MTT solution. After 4 hours of culture, a lysate was added. After 12 hours of culture, the OD570 was measured on a microplate reader. By comparing with the absorbance of the control well, the percentage of viable cells was calculated, and CC50, the concentration required for the reduction of cell viability by 50%, was calculated.

HBV = HBV DNA content in the supernatant of cell culture (real-time PCR); type: cell-based, hepatitis B virus (HBV); settings: Hepatitis B virus, HepG2.2.15, 192 h, inhibition of HBV DNA replication, HepG2.2.15 supernatant, 8 days
Method: as §1, §2, §3
HepG2.2.15 cells were treated with compounds at different concentrations for 8 days (the medium was exchanged on the 4th day), and the supernatant was aspirated, and the HBV DNA contained in the mature virus particles in the supernatant was quantitated by using a real-time PCR method.
1) The supernatant DNA from a 96-well plate, 200 μl/well, was collected, wherein the contents in the duplicate wells were collected into a same EP tube, and centrifuged at 4000 rcf for 5 min, and the supernatant was collected;
2) 200 μl of the supernatant was added into a 1.5 ml EP tube, added with 20 μl of proteinase K and 200 μl of Buffer AL (Qiagen, DNeasy® Blood & Tissue Kit), vortexed to be mixed thoroughly, and incubated at 56° C. for 10 min;
3) 200 μl of ethanol was added and vortexed to be mixed thoroughly;
4) all the liquid obtained from step 3) was added into a DNeasy Mini spin column (Qiagen, DNeasy® Blood & Tissue Kit) placed in a 2 ml waste liquid collection tube, and centrifuged at 6000 rcf for 1 min, and the supernatant was discarded;
5) the DNeasy Mini spin column was placed in a new 2 ml waste liquid collection tube, added with 500 μl of Buffer AW1 (Qiagen, DNeasy® Blood & Tissue Kit), and centrifuged at 6000 rcf for 1 min, and the supernatant was discarded;
6) the DNeasy Mini spin column was placed in a new 2 ml waste liquid collection tube, added with 500 μl of Buffer AW2, (Qiagen, DNeasy® Blood & Tissue Kit), and centrifuged at 20000 rcf for 3 min, and the supernatant was discarded;
7) the DNeasy Mini spin column was placed in anew 1.5 ml EP tube, 50 μl of Buffer AE (Qiagen, DNeasy® Blood & Tissue Kit) was pipetted and directly applied onto the membrane of the DNeasy Mini spin column, which was then left at room temperature for 5 min, and centrifuged at 6000 rcf for 1 min to elute the DNA from the membrane, the DNeasy Mini spin column was discarded, and the DNA sample was collected and stored at −20° C.
1) Standard curve: 1e^7-1e^4 IU/ml, the sample amount was 1 μl, a blank well was set so as to check whether the reaction system is polluted or not;
2) 1 μl of a DNA sample was added in sequence;
3) Addition of enzyme and reaction buffer: two tubes of the reaction solution were first added into the enzyme, mixed well and centrifuged slightly, placed on ice, added with the sample, followed by addition of 19 μl of the enzyme reaction solution, wherein, during the addition, the DNA sample should be sure of not being touched to cause contamination;
4) the sample was sealed with a sealing film and centrifuged;
Stage 2: 10 cycles • Step 1: 93° C., 45 s • Step 2: 55° C., 1 min Stage 3: 45 cycles • Step 1: 93° C., 30 s • Step 2: 55° C., 45 s
Detection: data were collected after completing the step 2 (55° C., 45 s) of the stage 3.
The experimental data were processed by using the Origin software and IC50 was calculated.

| SMILES | CC50 at 8 days [1] [µM] | IC50 (HBV) [µM] |
| --- | --- | --- |
| CC(C)(C)OC(=O)NCCCCNc1ccc(-c2nn(Cc3ccc(C#N)cc3)c(=O)c3ccccc23)c(F)n1 [IV-45] | > 100 | 0.368 |
| O=c1c2ccccc2c(-c2ccc(CN3CCOCC3)nc2F)nn1Cc1ccc(Cl)cc1 [Compound I-29] | > 100 | 4.6 |
| CC(C)(C)OC(=O)CCNc1nc(F)c(-c2nn(Cc3ccc(C#N)cc3)c(=O)c3ccccc23)cc1Cl [IV-62] | > 100 | 0.445 |
| N#Cc1ccc(Cn2nc(-c3ccc(NCCO)nc3F)c3ccccc3c2=O)cc1 [IV-76] | > 100 | 0.202 |
| O=c1c2ccccc2c(-c2ccc(NC3CC3)nc2F)nn1Cc1ccc(Cl)cc1 [Compound I-16] | 20.1 | 0.5 |
| N#Cc1ccc(Cn2nc(-c3cccnc3C#N)c3ccccc3c2=O)cc1 [IV-4] | > 100 | 3.3 |
| [2H]C([2H])(c1ccc(-c2nn(Cc3ccc(Cl)cc3)c(=O)c3ccccc23)c(F)n1)N(C)C [Compound I-37] | 95 | 2.7 |
| Cc1ccc(-c2nn(Cc3ccc(Cl)cc3)c(=O)c3ccc(C(F)(F)F)cc23)c(F)n1 [Compound V-8] | > 100 | 1.1 |
| COC(=O)CCCNc1nc(F)c(-c2nn(Cc3ccc(C#N)cc3)c(=O)c3ccccc23)cc1Cl [IV-65] | > 100 | 0.117 |
| N#Cc1ccc(Cn2nc(-c3ccc(NC4COC4)nc3F)c3ccccc3c2=O)cc1 [IV-16] | 88.3 | 1 |
| O=c1c2ccccc2c(-c2cccnc2Cl)nn1Cc1ccc(Cl)cc1 [Compound I-6] | > 100 | 1.7 |
| [2H]C([2H])(NC)c1ccc(-c2nn(Cc3ccc(Cl)cc3)c(=O)c3ccccc23)c(F)n1 [Compound I-38] | 81 | 0.8 |
| COc1ccc2c(=O)n(Cc3ccc(Cl)cc3)nc(-c3ccc(C)nc3F)c2c1 [Compound V-5] | > 100 | 3.7 |
| Cc1ccc(-c2nn(Cc3ccc(Cl)cc3)c(=O)c3cc(C(F)(F)F)c(C(F)(F)F)cc23)c(F)n1 [Compound V-9] | > 100 | 1.3 |
| Cc1ccc(-c2nn(Cc3ccc(C#N)cc3)c(=O)c3ccccc23)c(F)n1 [IV-6] | > 100 | 0.8 |
| CCNCCNc1nc(F)c(-c2nn(Cc3ccc(C#N)cc3)c(=O)c3ccccc23)cc1Cl [IV-48] | 7.38 | 0.516 |
| N#Cc1ccc(Cn2nc(-c3ccc(CN4CCOCC4)nc3F)c3ccccc3c2=O)cc1 [IV-24] | > 100 | 0.35 |
| Cc1ncccc1-c1nn(Cc2ccc(Cl)cc2)c(=O)c2ccccc12 [Compound I-7] | 48.9 | 3.8 |
| N#Cc1ccc(Cn2nc(-c3ccc(N4CCC4)nc3F)c3ccccc3c2=O)cc1 [IV-11] | 98.5 | 0.4 |
| CC1(C)OCC(CNc2nc(F)c(-c3nn(Cc4ccc(C#N)cc4)c(=O)c4ccccc34)cc2Cl)O1 (centres unmarked) [IV-79] | > 100 | 0.347 |
| N#Cc1ccc(Cn2nc(-c3cc(Cl)cnc3F)c3ccccc3c2=O)c(F)c1 [Compound I-42] | 33.5 | 0.378 |
| [2H]C([2H])([2H])c1ccc(-c2nn(Cc3ccc(Cl)cc3)c(=O)c3ccccc23)c(F)n1 [Compound I-34] | > 100 | 0.2 |
| N#Cc1ccc(Cn2nc(-c3cccnc3)c3ccccc3c2=O)cc1 [IV-1] | > 100 | 5.4 |
| Cc1ccc2c(=O)n(Cc3ccc(Cl)cc3)nc(-c3ccc(C)nc3F)c2c1 [Compound V-3] | > 100 | 1.5 |
| COc1ncc(-c2nn(Cc3ccc(Cl)cc3)c(=O)c3ccccc23)cn1 [II-3] | > 100 | 8.8 |

| SMILES | CC50 at 8 days [1] [µM] | IC50 (HBV) [µM] |
| --- | --- | --- |
| N#Cc1ccc(Cn2nc(-c3cccnc3F)c3ccccc3c2=O)cc1 [IV-2] | > 100 | 1.18 |
| CN(C)c1ccc(-c2nn(Cc3ccc(C#N)cc3)c(=O)c3ccccc23)c(F)n1 [IV-9] | > 100 | 1.3 |
| [2H]C(c1ccc(C#N)cc1)n1nc(-c2ccc(F)nc2F)c2ccccc2c1=O (centres unmarked) [IV-17] | > 100 | 0.13 |
| Cc1ncc(-c2nn(Cc3ccc(Cl)cc3)c(=O)c3ccccc23)cn1 [II-4] | 97.6 | 7.1 |
| Cc1cnc(F)c(-c2nn(Cc3ccc(C#N)cc3)c(=O)c3ccccc23)c1 [Compound I-44] | 31.5 | 0.294 |
| CN(C)CCNc1ccc(-c2nn(Cc3ccc(C#N)cc3)c(=O)c3ccccc23)c(F)n1 [IV-14] | > 100 | 1.5 |
| O=c1c2ccccc2c(-c2cc(Cl)cnc2F)nn1Cc1ccc(Cl)cc1 [Compound I-39] | > 25 | 0.21 |
| CCOC(=O)CNc1ccc(-c2nn(Cc3ccc(C#N)cc3)c(=O)c3ccccc23)c(F)n1 [IV-34] | > 100 | 15.7 |
| Cc1cnc(-c2nn(Cc3ccc(Cl)cc3)c(=O)c3ccccc23)cn1 [III-1] | 87.8 | 6.2 |
| COCNc1ccc(-c2nn(Cc3ccc(Cl)cc3)c(=O)c3ccccc23)c(F)n1 [Compound I-15] | > 100 | 6.2 |
| N#Cc1ccc(Cn2nc(-c3cc(CN4CCOCC4)cnc3F)c3ccccc3c2=O)cc1 [Compound I-45] | > 100 | 2.02 |
| COCc1ccc(-c2nn(Cc3ccc(Cl)cc3)c(=O)c3ccccc23)c(F)n1 [Compound I-32] | > 100 | 1 |
| CCOC(=O)CCNc1ccc(-c2nn(Cc3ccc(C#N)cc3)c(=O)c3ccccc23)c(F)n1 [IV-70] | > 100 | 3.32 |
| N#Cc1ncccc1-c1nn(Cc2ccc(Cl)cc2)c(=O)c2ccccc12 [Compound I-8] | > 100 | 5.2 |
| O=c1c2ccccc2c(-c2ccc(CO)nc2F)nn1Cc1ccc(Cl)cc1 [Compound I-22] | > 100 | 0.4 |
| N#Cc1ccc(Cn2nc(-c3cc(Cl)c(N)nc3F)c3ccccc3c2=O)cc1 [IV-30] | 10.2 | < 0.0977 |
| Cc1ccc(-c2nn(Cc3ccc(C#N)cc3)c(=O)c3cc(C)c(C)cc23)c(F)n1 [Compound V-11] | > 100 | 1.2 |
| CC(C)(C)OC(=O)CCCNc1nc(F)c(-c2nn(Cc3ccc(C#N)cc3)c(=O)c3ccccc23)cc1Cl [IV-51] | 89.9 | 0.092 |
| N#Cc1ccc(Cn2nc(-c3cc(Cl)c(NCCCO)nc3F)c3ccccc3c2=O)cc1 [IV-67] | > 100 | 0.0042 |
| CCNCCNc1ccc(-c2nn(Cc3ccc(C#N)cc3)c(=O)c3ccccc23)c(F)n1 [IV-47] | 13 | 1.72 |
| CCOC(=O)CCNc1nc(F)c(-c2nn(Cc3ccc(C#N)cc3)c(=O)c3ccccc23)cc1Cl [IV-71] | > 100 | 2.78 |
| Cc1ncccc1-c1nn(Cc2ccc(C#N)cc2)c(=O)c2ccccc12 [IV-3] | > 100 | 5.5 |
| CCOCCCNc1nc(F)c(-c2nn(Cc3ccc(C#N)cc3)c(=O)c3ccccc23)cc1Cl [IV-44] | 54.8 | < 0.0977 |
| CC(=O)OCc1ccc(-c2nn(Cc3ccc(Cl)cc3)c(=O)c3ccccc23)c(F)n1 [Compound I-28] | 73.1 | 1 |
